Patent publication US20260022142A1, “MACROCYCLIC IMMUNOMODULATORS” (Bristol-Myers Squibb Company, priority 2022, published 2026)
Numbered stars: 1 amine (or outer) side, 2 acyl side, 3 side chain; on linkers, the order of the positions; unused ones are H or OH. Bridge positions count the residues as written; N and C are the ends. Square brackets hold non-standard residues; d marks the D form. Peptide text beside a SMILES is read from it. * marks the point of attachment. ξ: configuration not given here. Phe(4-COOH) = N[C@@H](Cc1ccc(C(=O)O)cc1)C(=O)O; Bip = N[C@@H](Cc1ccc(-c2ccccc2)cc1)C(=O)O; NH(CH2)14COOH = O=C(O)CCCCCCCCCCCCCCN*; Phe(3-Me) = Cc1cccc(C[C@H](N)C(=O)O)c1; X5 = CC(C)(CCN)[C@H](N[*:1])C(=O)[*:2]; NH(CH2)12COOH = O=C(O)CCCCCCCCCCCCN*; Val(3-OH) = CC(C)(O)[C@H](N)C(=O)O; hArg = N=C(N)NCCCC[C@H](N)C(=O)O; 4Pal = N[C@@H](Cc1ccncc1)C(=O)O; Cha = N[C@@H](CC1CCCCC1)C(=O)O; Cit = NC(=O)NCCC[C@H](N)C(=O)O; Thr(3ξ) = CC(O)[C@H](N)C(=O)O; 12Ado = NCCCCCCCCCCCC(=O)O; Carboxymethyl = O=C(O)C*; Orn = NCCC[C@H](N)C(=O)O; Aun = NCCCCCCCCCCC(=O)O; Dab = NCC[C@H](N)C(=O)O; Dap = NC[C@H](N)C(=O)O; AEEA = NCCOCCOCC(=O)O

target: T1, PD-1/PD-L1 interaction (PE-labeled human PD-L1-Ig binding to Jurkat cell line over-expressing human PD-1) (Homo sapiens, UniProt Q15116); assay: Jurkat-PD-1 Cell Binding High-Content Screening Assay (CBA); assay type: cell-based; conditions: Jurkat cell line over-expressing human PD-1; PE-labeled PD-L1-Ig 20 nM final; read-out: Jurkat hPD1-PDL1 IC50
T1 construct: expressed in transfected cells; host or cells: Jurkat
In short: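 First, compound is added to PD-1-expressing Jurkat cells in serum-containing DMEM and left 2 h at 37° C. Next, PE-conjugated PD-L1-Ig is introduced at 20 nM final concentration for 1 hour. Finally, cells are fixed in 4% paraformaldehyde with Hoechst 33342, washed and imaged.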

T1 sequence (Q15116 25-288): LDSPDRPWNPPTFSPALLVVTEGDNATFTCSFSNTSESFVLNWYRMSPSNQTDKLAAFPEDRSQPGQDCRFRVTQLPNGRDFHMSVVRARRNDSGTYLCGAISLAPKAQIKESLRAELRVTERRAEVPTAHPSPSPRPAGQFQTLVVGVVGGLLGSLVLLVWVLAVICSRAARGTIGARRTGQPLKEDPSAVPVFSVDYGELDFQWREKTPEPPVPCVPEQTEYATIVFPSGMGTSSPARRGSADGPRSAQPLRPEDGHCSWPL

Row | Structure (SMILES) | IC50
1 | Cc1cccc(C[C@@H]2NC(=O)[C@H](CC(=O)O)NC(=O)[C@H](Cc3ccc(OCC(=O)O)cc3)NC(=O)[C@H](C(C)(C)CCN)NC(=O)CSC[C@@H](C(=O)N[C@@H](CCN)C(=O)NCCCCCCCCCCCCC(=O)O)NC(=O)[C@H](CO)NC(=O)[C@H](C(C)(C)O)NC(=O)[C@H](CC3CCCCC3)NC(=O)[C@H](CCN)NC(=O)[C@@H](CC(C)C)NC(=O)[C@H](CCCN)NC(=O)[C@H](Cc3ccc(OCC(=O)O)cc3)NC(=O)[C@H](Cc3ccc(-c4ccccc4)cc3)NC(=O)[C@H](Cc3ccc(OCC(=O)O)cc3)NC2=O)c1 [Compound 2176] ({CH2CO}-[X5]Y(Carboxymethyl)D[Phe(3-Me)]Y(Carboxymethyl)[Bip]Y(Carboxymethyl)[Orn][dL][Dab][Cha][Val(3-OH)]SC[Dab]-{NH(CH2)12COOH}; thioether N-14) | 105 nM
2 | CC(C)C[C@@H]1NC(=O)[C@H](Cc2c[nH]c3ccccc23)NC(=O)[C@H](CC(=O)O)NC(=O)[C@H](Cc2ccc(C(=O)O)cc2)NC(=O)[C@H](Cc2ccc(OCC(=O)O)cc2)NC(=O)CSC[C@@H](C(=O)NCCOCCOCC(=O)NCCCCCCCCCCC(=O)O)NC(=O)[C@H](CCN)NC(=O)[C@H](C(C)C)NC(=O)[C@H](CC2CCCCC2)NC(=O)[C@H](CCN)NC(=O)[C@@H](CC(C)C)NC(=O)[C@H](CCCN)NC(=O)[C@H](Cc2ccc(O)cc2)NC(=O)[C@H](Cc2ccc(-c3ccccc3)cc2)NC1=O [Compound 1239] ({CH2CO}-Y(Carboxymethyl)[Phe(4-COOH)]DWL[Bip]Y[Orn][dL][Dab][Cha]V[Dab]C[AEEA][Aun]-OH; thioether N-14) | 30.2 nM
3 | Cc1cccc(C[C@@H]2NC(=O)[C@H](CC(=O)O)NC(=O)[C@H](Cc3ccc(OCC(=O)O)cc3)NC(=O)[C@H](Cc3ccncc3)NC(=O)CSC[C@@H](C(=O)N[C@@H](CCCN)C(=O)N[C@@H](CO)C(=O)NCCCCCCCCCCCC(=O)O)NC(=O)[C@H](C(C)O)NC(=O)[C@H](C(C)C)NC(=O)[C@H](CC3CCCCC3)NC(=O)[C@H](CCN)NC(=O)[C@@H](CC(C)C)NC(=O)[C@H](CCCN)NC(=O)[C@H](CCCNC(N)=O)NC(=O)[C@H](Cc3ccc(-c4ccccc4)cc3)NC(=O)[C@H](C(C)C)NC2=O)c1 (stereo partly drawn) [Compound 3585] ({CH2CO}-[4Pal]Y(Carboxymethyl)D[Phe(3-Me)]V[Bip][Cit][Orn][dL][Dab][Cha]V[Thr(3ξ)]C[Orn]S[12Ado]-OH; thioether N-14) | 30.8 nM
4 | CC(C)C[C@H]1NC(=O)[C@H](CCCN)NC(=O)[C@H](C(C)C)NC(=O)[C@H](Cc2ccc(-c3ccccc3)cc2)NC(=O)[C@H](C(C)C)NC(=O)[C@H](Cc2c[nH]c3ccccc23)NC(=O)[C@H](CC(=O)O)NC(=O)[C@H](Cc2ccc(C(=O)O)cc2)NC(=O)[C@H](CCCCNC(=N)N)NC(=O)CSC[C@@H](C(=O)N[C@@H](C)C(=O)N[C@@H](CCCCN)C(=O)NCCCCCCCCCCCCCCC(=O)O)NC(=O)[C@H](C(C)O)NC(=O)[C@H](C(C)C)NC(=O)[C@H](CC2CCCCC2)NC(=O)[C@H](CCN)NC1=O (stereo partly drawn) [Compound 3016] ({CH2CO}-[hArg][Phe(4-COOH)]DWV[Bip]V[Orn][dL][Dab][Cha]V[Thr(3ξ)]CAK-{NH(CH2)14COOH}; thioether N-14) | 94.5 nM
5 | Cc1cccc(C[C@@H]2NC(=O)[C@H](CC(=O)O)NC(=O)[C@H](Cc3ccc(OCC(=O)O)cc3)NC(=O)[C@H](CCN)NC(=O)CSC[C@@H](C(=O)N[C@H](CC(N)=O)C(=O)NCCCCCCCCCCC(=O)O)NC(=O)[C@H](CO)NC(=O)[C@H](C(C)O)NC(=O)[C@H](CC3CCCCC3)NC(=O)[C@H](CCN)NC(=O)[C@@H](CC(C)C)NC(=O)[C@H](CCCN)NC(=O)[C@H](Cc3ccc(OCC(=O)O)cc3)NC(=O)[C@H](Cc3ccc(-c4ccccc4)cc3)NC(=O)[C@H](Cc3ccc(OCC(=O)O)cc3)NC2=O)c1 (stereo partly drawn) [Compound 3660] ({CH2CO}-[Dab]Y(Carboxymethyl)D[Phe(3-Me)]Y(Carboxymethyl)[Bip]Y(Carboxymethyl)[Orn][dL][Dab][Cha][Thr(3ξ)]SC[dN][Aun]-OH; thioether N-14) | 67.9 nM
6 | Cc1cccc(C[C@@H]2NC(=O)[C@H](CC(=O)O)NC(=O)[C@H](Cc3ccc(OCC(=O)O)cc3)NC(=O)[C@H](C(C)O)NC(=O)CSC[C@@H](C(=O)N[C@@H](CCN)C(=O)NCCCCCCCCCCC(=O)O)NC(=O)[C@H](C(C)O)NC(=O)[C@H](C(C)C)NC(=O)[C@H](CC3CCCCC3)NC(=O)[C@H](CCN)NC(=O)[C@@H](CC(C)C)NC(=O)[C@H](CCCN)NC(=O)[C@H](CCCNC(N)=O)NC(=O)[C@H](Cc3ccc(-c4ccccc4)cc3)NC(=O)[C@H](C(C)C)NC2=O)c1 (stereo partly drawn) [Compound 3458] ({CH2CO}-[Thr(3ξ)]Y(Carboxymethyl)D[Phe(3-Me)]V[Bip][Cit][Orn][dL][Dab][Cha]V[Thr(3ξ)]C[Dab][Aun]-OH; thioether N-14) | 18.4 nM
7 | Cc1cccc(C[C@@H]2NC(=O)[C@H](CC(=O)O)NC(=O)[C@H](Cc3ccc(O)cc3)NC(=O)[C@H](CC(N)=O)NC(=O)CSC[C@@H](C(=O)N[C@@H](CCCCN)C(=O)NCCCCCCCCCCC(=O)O)NC(=O)[C@H](CCCN)NC(=O)[C@H](C(C)C)NC(=O)[C@H](CC(C)C)NC(=O)[C@H](CCN)NC(=O)[C@@H](CC(C)C)NC(=O)[C@H](CCCN)NC(=O)[C@H](CCCNC(N)=O)NC(=O)[C@H](Cc3ccc(-c4ccccc4)cc3)NC(=O)[C@H](C(C)C)NC2=O)c1 [Compound 2803] ({CH2CO}-NYD[Phe(3-Me)]V[Bip][Cit][Orn][dL][Dab]LV[Orn]CK[Aun]-OH; thioether N-14) | 73.9 nM

Molecules with a lower IC50, results first:

Row | IC50 | Structure (SMILES)
8 | 15.7 nM | CC(C)C[C@H]1NC(=O)[C@H](CCCN)NC(=O)[C@H](C(C)C)NC(=O)[C@H](Cc2ccc(-c3ccccc3)cc2)NC(=O)[C@H](C(C)C)NC(=O)[C@H](Cc2c[nH]c3ccccc23)NC(=O)[C@H](CC(=O)O)NC(=O)[C@H](Cc2ccc(OCC(=O)O)cc2)NC(=O)[C@H](CN)NC(=O)CSC[C@@H](C(=O)NCCOCCOCC(=O)N[C@@H](CCN)C(=O)NCCCCCCCCCCC(=O)O)NC(=O)[C@H]([C@@H](C)O)NC(=O)[C@H](C(C)C)NC(=O)[C@H](CC2CCCCC2)NC(=O)[C@H](Cc2cnc[nH]2)NC1=O [Compound 1096] ({CH2CO}-[Dap]Y(Carboxymethyl)DWV[Bip]V[Orn][dL]H[Cha]VTC[AEEA][Dab][Aun]-OH; thioether N-14)
9 | 15.3 nM | CC[C@H](C)[C@@H]1NC(=O)[C@H](Cc2ccc(-c3ccccc3)cc2)NC(=O)[C@H](C(C)C)NC(=O)[C@H](Cc2cccc(C)c2)NC(=O)[C@H](CC(=O)O)NC(=O)[C@H](Cc2ccc(C(=O)O)cc2)NC(=O)[C@H](Cc2ccncc2)NC(=O)CSC[C@@H](C(=O)N[C@@H](C)C(=O)N[C@@H](CC(=O)O)C(=O)NCC(=O)NCCCCCCCCCCC(=O)O)NC(=O)[C@H]([C@@H](C)O)NC(=O)[C@H](C(C)C)NC(=O)[C@H](CC2CCCCC2)NC(=O)[C@H](CCN)NC(=O)[C@@H](CC(C)C)NC(=O)[C@H](CCCN)NC1=O [Compound 1042]
10 | 5.2 nM | CC[C@H](C)[C@@H]1NC(=O)[C@H](Cc2ccc(-c3ccccc3)cc2)NC(=O)[C@H](C(C)C)NC(=O)[C@H](Cc2cccc(C)c2)NC(=O)[C@H](CC(=O)O)NC(=O)[C@H](Cc2ccc(OCC(=O)O)cc2)NC(=O)[C@H](CN)NC(=O)CSC[C@@H](C(=O)N[C@@H](CCCCN)C(=O)NCCOCCOCC(=O)NCCCCCCCCCCC(=O)O)NC(=O)[C@H](CCCNC(=N)N)NC(=O)[C@H](C(C)C)NC(=O)[C@H](CC2CCCCC2)NC(=O)[C@H](CCN)NC(=O)[C@@H](CC(C)C)NC(=O)[C@H](CCCN)NC1=O [Compound 2654] ({CH2CO}-[Dap]Y(Carboxymethyl)D[Phe(3-Me)]V[Bip]I[Orn][dL][Dab][Cha]VRCK[AEEA][Aun]-OH; thioether N-14)
